Test results published in ChEMBL document CHEMBL1201862, “PubChem BioAssay data set” (2004).
Active and inactive are the calls of the source.

How the values were obtained:
[1] = target: T1, Sentrin-specific protease 8 (Homo sapiens, UniProt Q96LD8); experiment: SENP8 protease inhibitors, SAR follow-up, biochemical, luminescence (AID 504501); assay type: functional
T1 sequence (Q96LD8 whole entry): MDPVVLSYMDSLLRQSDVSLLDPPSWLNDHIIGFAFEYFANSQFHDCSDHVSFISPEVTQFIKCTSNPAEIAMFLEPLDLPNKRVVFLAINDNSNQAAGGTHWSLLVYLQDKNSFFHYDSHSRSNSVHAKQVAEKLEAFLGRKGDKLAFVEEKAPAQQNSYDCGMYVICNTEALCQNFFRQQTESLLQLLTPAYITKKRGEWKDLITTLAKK

[2] = target: T2, Sentrin-specific protease 6 (Homo sapiens, UniProt Q9GZR1); experiment: SAR Analysis of small molecule inhibitors of Sentrin-specific protease 6 (SENP6) using a Luminescent assay. [Related pubchem assays (depositor defined):AID2582, AID2599]; assay type: functional
T2 sequence (Q9GZR1 whole entry): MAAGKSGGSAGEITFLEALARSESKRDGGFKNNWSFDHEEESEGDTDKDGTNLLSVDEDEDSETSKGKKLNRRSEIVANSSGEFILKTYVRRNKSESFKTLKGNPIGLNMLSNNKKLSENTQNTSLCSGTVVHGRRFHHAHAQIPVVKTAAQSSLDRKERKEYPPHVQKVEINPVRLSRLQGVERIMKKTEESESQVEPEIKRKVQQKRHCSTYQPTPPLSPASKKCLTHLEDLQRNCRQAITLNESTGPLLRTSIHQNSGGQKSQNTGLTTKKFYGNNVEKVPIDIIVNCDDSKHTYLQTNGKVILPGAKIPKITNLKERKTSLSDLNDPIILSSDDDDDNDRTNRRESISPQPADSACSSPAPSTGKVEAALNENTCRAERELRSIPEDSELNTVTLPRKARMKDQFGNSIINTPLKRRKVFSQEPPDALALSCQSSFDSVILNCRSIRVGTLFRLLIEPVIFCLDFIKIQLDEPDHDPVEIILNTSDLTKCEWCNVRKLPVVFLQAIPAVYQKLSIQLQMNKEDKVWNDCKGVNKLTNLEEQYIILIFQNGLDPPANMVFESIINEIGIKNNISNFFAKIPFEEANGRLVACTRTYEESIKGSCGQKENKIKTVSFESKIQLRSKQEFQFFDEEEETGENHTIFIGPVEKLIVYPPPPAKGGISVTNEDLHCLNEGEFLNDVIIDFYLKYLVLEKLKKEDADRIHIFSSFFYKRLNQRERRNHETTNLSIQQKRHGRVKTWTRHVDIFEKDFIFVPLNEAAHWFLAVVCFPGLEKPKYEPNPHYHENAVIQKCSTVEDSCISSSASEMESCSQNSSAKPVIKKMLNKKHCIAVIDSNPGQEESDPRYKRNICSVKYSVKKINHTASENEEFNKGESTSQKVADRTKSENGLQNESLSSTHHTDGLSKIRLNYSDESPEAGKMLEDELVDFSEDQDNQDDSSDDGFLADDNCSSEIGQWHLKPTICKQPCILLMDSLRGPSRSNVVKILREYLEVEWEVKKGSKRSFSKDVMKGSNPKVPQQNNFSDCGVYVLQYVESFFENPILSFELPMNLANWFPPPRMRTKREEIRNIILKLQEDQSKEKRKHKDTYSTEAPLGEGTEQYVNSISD

[3] = target: T3, Sentrin-specific protease 7 (Homo sapiens, UniProt Q9BQF6); experiment: SENP7 protease inhibitors, SAR follow-up, biochemical, luminescence (AID 504497); assay type: functional
T3 sequence (Q9BQF6 whole entry): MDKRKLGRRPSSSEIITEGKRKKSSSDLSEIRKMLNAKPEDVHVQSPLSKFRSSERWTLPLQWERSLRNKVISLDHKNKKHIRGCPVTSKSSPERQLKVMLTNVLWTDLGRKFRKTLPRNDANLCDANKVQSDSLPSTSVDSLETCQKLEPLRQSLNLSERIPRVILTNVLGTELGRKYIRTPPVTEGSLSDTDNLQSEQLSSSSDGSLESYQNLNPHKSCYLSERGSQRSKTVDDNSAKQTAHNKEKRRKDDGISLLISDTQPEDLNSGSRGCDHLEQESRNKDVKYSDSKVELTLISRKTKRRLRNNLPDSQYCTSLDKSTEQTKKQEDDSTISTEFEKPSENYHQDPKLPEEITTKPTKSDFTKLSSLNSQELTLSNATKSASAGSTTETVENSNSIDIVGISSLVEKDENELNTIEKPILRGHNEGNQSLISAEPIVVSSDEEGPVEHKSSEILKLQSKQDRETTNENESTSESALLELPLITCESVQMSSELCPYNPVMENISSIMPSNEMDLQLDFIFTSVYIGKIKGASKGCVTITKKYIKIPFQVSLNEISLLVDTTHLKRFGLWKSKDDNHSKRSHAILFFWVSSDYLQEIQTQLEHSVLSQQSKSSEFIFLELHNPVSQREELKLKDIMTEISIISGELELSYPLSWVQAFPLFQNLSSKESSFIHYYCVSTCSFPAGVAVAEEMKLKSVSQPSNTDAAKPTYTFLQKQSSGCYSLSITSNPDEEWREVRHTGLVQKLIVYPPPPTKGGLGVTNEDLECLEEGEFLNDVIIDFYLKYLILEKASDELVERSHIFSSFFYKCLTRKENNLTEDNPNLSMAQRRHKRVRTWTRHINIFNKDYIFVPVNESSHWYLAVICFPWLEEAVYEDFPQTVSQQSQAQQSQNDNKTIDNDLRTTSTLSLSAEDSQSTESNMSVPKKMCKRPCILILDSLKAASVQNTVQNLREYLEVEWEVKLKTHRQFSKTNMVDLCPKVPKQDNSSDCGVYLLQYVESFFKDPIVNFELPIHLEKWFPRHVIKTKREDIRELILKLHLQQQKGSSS

Caspase-3 = target: T4, Caspase-3 (Homo sapiens, UniProt P42574); experiment: SAR Analysis of small molecule inhibitors of Sentrin-specific proteases (SENPs) using a Caspase-3 Selectivity assay. [Related pubchem assays (depositor defined):AID2540, AID2599, AID434973, AID489001]; assay type: functional
T4 sequence (P42574 whole entry): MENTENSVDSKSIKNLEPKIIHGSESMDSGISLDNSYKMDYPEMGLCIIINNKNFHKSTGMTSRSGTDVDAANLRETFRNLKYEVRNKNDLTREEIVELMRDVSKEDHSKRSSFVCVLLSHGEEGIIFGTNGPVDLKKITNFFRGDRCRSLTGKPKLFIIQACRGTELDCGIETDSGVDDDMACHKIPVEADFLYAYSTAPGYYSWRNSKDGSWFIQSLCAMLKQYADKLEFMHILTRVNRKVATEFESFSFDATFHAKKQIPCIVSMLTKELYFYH

Phospholipase D1 [4] = target: T5, Phospholipase D1 (Homo sapiens, UniProt Q13393); experiment: PLD1 purified enzyme concentration response. [Related pubchem assays (depositor defined):AID588854]; assay type: functional
T5 sequence (Q13393 whole entry): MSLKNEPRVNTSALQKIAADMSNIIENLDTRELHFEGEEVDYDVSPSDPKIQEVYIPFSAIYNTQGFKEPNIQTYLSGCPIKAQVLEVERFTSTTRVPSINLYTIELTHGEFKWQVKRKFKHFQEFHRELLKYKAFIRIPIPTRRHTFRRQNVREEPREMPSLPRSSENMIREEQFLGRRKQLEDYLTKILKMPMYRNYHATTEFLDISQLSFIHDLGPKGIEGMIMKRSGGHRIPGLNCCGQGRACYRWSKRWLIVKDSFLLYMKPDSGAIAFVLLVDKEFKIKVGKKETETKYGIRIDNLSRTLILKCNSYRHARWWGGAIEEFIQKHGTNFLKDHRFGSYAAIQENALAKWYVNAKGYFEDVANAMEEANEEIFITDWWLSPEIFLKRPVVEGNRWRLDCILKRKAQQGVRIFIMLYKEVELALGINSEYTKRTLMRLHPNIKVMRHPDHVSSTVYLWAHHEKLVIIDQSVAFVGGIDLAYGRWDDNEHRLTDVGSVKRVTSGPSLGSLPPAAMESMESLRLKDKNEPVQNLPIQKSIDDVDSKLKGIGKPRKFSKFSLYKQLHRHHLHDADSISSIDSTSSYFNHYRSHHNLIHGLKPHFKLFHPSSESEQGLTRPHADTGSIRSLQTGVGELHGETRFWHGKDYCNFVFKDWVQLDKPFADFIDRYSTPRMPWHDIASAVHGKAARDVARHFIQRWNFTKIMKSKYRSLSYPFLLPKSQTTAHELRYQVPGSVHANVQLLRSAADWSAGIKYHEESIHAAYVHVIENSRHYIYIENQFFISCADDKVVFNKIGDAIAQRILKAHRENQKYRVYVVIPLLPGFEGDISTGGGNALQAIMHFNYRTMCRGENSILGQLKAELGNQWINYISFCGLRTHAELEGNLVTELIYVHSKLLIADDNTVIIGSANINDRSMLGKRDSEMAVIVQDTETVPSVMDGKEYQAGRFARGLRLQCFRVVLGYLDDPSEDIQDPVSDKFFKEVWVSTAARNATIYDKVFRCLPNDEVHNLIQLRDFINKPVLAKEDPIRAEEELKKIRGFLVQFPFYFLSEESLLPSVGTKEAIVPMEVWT

Phospholipase D2 [5] = target: T6, Phospholipase D2 (Homo sapiens, UniProt O14939); experiment: PLD2 purified enzyme concentration response. [Related pubchem assays (depositor defined):AID588854]; assay type: functional
T6 sequence (O14939 whole entry): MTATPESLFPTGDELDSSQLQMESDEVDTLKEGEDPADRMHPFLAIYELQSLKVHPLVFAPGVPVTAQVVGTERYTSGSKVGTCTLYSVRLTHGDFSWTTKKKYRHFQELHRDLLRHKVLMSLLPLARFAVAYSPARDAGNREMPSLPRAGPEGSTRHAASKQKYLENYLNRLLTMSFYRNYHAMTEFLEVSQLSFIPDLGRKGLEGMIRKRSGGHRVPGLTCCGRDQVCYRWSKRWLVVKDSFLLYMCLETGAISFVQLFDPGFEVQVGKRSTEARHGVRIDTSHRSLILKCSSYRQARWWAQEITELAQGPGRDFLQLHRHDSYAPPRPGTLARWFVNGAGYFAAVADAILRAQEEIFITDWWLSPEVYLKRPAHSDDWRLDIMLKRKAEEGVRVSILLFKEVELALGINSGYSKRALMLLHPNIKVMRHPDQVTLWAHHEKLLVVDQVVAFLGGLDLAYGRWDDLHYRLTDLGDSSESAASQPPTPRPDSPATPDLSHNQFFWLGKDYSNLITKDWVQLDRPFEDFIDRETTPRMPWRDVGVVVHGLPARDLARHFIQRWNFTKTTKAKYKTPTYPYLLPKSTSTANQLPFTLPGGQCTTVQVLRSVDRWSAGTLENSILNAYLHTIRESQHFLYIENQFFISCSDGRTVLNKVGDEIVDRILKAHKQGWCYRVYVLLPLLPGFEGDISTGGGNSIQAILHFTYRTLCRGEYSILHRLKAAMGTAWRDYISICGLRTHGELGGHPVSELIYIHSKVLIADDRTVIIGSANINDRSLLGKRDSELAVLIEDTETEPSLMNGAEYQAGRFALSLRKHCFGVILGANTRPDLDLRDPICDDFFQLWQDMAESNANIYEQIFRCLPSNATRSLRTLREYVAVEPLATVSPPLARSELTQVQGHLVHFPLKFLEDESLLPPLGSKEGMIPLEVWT

Phospholipase D1 [6] = target: T5, Phospholipase D1; experiment: PLD1 inhibitor potency in cells, dose response (AID 602151); assay type: functional;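 note: cellular PLD1 assay in Calu-1 cells stimulated with PMA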
Phospholipase D2 [7] = target: T6, Phospholipase D2; experiment: PLD2 inhibitor potency in cells, dose response (AID 602147); assay type: functional;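 note: cellular assay in HEK293 cells overexpressing GFP-tagged PLD2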
HEK293 = experiment: cells; assay type: functional, cell-based; conditions: Homo sapiens
[8] = target: FAD-linked sulfhydryl oxidase ALR (Homo sapiens, UniProt P55789); experiment: inhibitors of human ALR sulfhydryl oxidase, dose response, biochemical, H2O2 detection, luminescence, cherry-pick (AID 493248)
Chain of FAD-linked sulfhydryl oxidase ALR (P55789 whole entry): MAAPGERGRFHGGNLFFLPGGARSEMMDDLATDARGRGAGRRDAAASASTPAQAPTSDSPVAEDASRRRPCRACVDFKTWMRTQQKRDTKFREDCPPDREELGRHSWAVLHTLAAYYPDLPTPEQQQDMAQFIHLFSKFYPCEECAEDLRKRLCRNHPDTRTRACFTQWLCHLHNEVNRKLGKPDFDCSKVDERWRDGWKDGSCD

[9] = target: Nuclear receptor subfamily 0 group B member 1 (Homo sapiens, UniProt P51843); experiment: Luminescence-based cell-based high throughput dose response assay for inhibitors of the orphan nuclear receptor subfamily 0, group B, member 1 (DAX1; NR0B1). [Related pubchem assays (depositor defined):AID504766, AID504790]; assay type: functional
Chain of Nuclear receptor subfamily 0 group B member 1 (P51843 whole entry): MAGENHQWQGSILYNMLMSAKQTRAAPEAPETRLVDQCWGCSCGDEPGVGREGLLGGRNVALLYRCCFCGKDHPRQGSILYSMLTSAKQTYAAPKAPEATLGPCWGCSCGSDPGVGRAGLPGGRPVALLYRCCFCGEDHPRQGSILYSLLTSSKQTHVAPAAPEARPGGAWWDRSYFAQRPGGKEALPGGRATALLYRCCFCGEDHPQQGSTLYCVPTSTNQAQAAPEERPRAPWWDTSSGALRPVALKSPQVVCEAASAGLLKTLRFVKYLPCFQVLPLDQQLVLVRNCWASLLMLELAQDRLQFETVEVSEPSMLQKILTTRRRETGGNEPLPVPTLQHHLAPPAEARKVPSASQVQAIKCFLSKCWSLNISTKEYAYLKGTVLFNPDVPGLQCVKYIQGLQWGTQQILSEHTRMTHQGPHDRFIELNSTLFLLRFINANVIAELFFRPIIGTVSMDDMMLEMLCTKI

[10] = cytotoxicity in MIN6 insulinoma cells, dose response, cytotoxicity control, cell-based, mouse insulinoma (AID 2122); assay type: functional;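 note: confirmatory high-throughput counterscreen run to flag cytotoxic compounds; mouse MIN-6 beta cells carrying an insulin promoter eGFP reporter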
[11] = insulin promoter down-regulators in MIN6 cells, imaging, high-content screening, mouse beta cells (AID 1628); assay type: functional

## CCOc1ccc2nc(N(Cc3cccnc3)C(=O)c3ccc(Cl)s3)sc2c1
[1]
  IC50: > 99 µM (inactive)
[2]
  IC50: > 99 µM (inactive)
[3]
  IC50: > 99 µM (inactive)
Caspase-3
  IC50: > 99 µM (inactive)

## O=C(NCCN1CCC2(CC1)C(=O)NCN2c1ccccc1)c1cc2ccccc2s1
Phospholipase D1 [4]
  IC50: 4 µM (active)
Phospholipase D2 [5]
  IC50: 0.092 µM (active)

## C[C@@H](CN1CCC(n2c(=O)[nH]c3ccccc32)CC1)NC(=O)C1C[C@H]1c1ccccc1 (some centres not stated)
Phospholipase D1 [6]
  IC50: 0.088 µM (active)
Phospholipase D2 [7]
  IC50: 14.5 µM (active)

## O=C(NCCN1CCC2(CC1)C(=O)NCN2c1ccc(F)cc1)c1cnc2ccccc2c1
Phospholipase D1 [4]
  IC50: 20 µM (active)
Phospholipase D2 [5]
  IC50: 0.14 µM (active)

## C[C@@H](CN1CCC(n2c(=O)[nH]c3ccccc32)CC1)NC(=O)c1cc2ccccc2[nH]1
Phospholipase D1 [6]
  IC50: 0.001 µM (active)
Phospholipase D2 [7]
  IC50: 0.066 µM (active)

## COc1ccc(/C=N/Nc2nc3ccccc3[nH]2)c(OC)c1OC
HEK293
  IC50: > 67.5 µM (inactive)
[8]
  AC50: 0.278 µM (active)
[9]
  IC50: > 67.5 µM (inactive)

## Cc1c(Cl)cccc1NC(=O)CCC(=O)N/N=C/c1ccc[nH]1
[10]
  IC50: 2.36 µM (active)
[11]
  IC50: 2.31 µM (active)
